Entries after “also recorded” stand apart in the source; their conditions may differ.
Tested on: black willow (Salix nigra) roots
Assay: Foam application to exposed roots of greenhouse-grown black willow cuttings; roots evaluated 25 days after treatment
Details: for Dry Weight of Roots, Dead Roots / Dry Weight of Roots, Live Roots: 20 min contact, twenty-five days following treatment, average of 24 willow cuttings; for Effect on treated roots (visual inspection, living roots / root growth): foam application, twenty-five days following treatment (FIG. 3, FIG. 4)
Experimental: Individual branch cuttings of black willow (Salix nigra) were collected and grown in containers according to methods described in Groninger and Bohanek 2000, J. of Plant Growth Regulation 19:453-456. The cuttings were rooted in 262 ml tubes containing a 1:1 mixture of peat moss and white washed play sand. Tubes were perforated with a 2 cm^2 hole in the bottom and four 1.4 cm^2 holes on the side, 2 cm from the bottom of the tube. Cuttings were grown under greenhouse conditions in racks containing 12 tubes each with one cutting per tube. To facilitate root growth outside of the tube, the racks were placed in aluminum pans and positioned so that the base of each tube was suspended in dilute nutrient solution. Water was added as needed and a 20-20-20-NPK fertilizer was provided at a rate of 0.04 g/cutting per week into the pan. Root growth was further facilitated by maintaining the root zone in darkness by covering gaps between the edge of the rack and the pan with aluminum foil. When cuttings had been growing for approximately four months, intermingling exposed roots from adjacent cuttings were separated from one another and fine roots were allowed to regrow. Treatment were initiated when shoots averaged 0.8 meters in height with healthy foliage. At the time of treatment, each cutting produced profuse growth of roots 0.3 cm in diameter or less.
Roots of the cuttings were exposed to paraquat, diquat, Rootex, a rooting hormone, and a control. Paraquat (Gramoxone Max®, Syngenta, containing 43.8% paraquat) was applied to roots cuttings at two rates, 2.0 and 4.0 ml/L. Diquat (Reward®, Syngenta, containing 37.3% diquat) was applied at 4.0 ml/L. Each treatment of the four treatments were applied in 1.0 L water solution with a 2% alkyl polyglycoside-based foaming agent, AU-340 (Adjuvants Unlimited, Tulsa, Okla.) using a foam generator to simulate a standard application of chemicals in controlling tree roots in sewer lines. Roots were placed in contact with foam solution for 20 minutes. […] Upon removal of foam solution, cuttings and their exposed roots were returned to pretreatment nutrient conditions with residual foam permitted to maintain contact with exposed roots.
Evaluation of roots was conducted twenty-five days following treatment. Roots were visually inspected, harvested, separated into living and dead groups, dried and weighed for dry mass determination.

Row | Compound | Dry Weight of Roots, Dead Roots (4.0 ml/L of stock in foam) | Dry Weight of Roots, Live Roots (4.0 ml/L of stock in foam) | Effect on treated roots (visual inspection, living roots / root growth) | Dry Weight of Roots, Dead Roots (2.0 ml/L of stock in foam) | Dry Weight of Roots, Live Roots (2.0 ml/L of stock in foam) | Damage to the upper portion of the trees (green house testing, applied as a dense foam to tree roots)
1 | c1cc[n+]2c(c1)-c1cccc[n+]1CC2 [Diquat] | 0.9 g/willow cutting | 0 g/willow cutting | No living roots |  |  | 
2 | C[n+]1ccc(-c2cc[n+](C)cc2)cc1 [Paraquat, 1,1′-dimethyl-4,4′-bipyridium ion] | 2.2 g/willow cutting | 0 g/willow cutting | destruction of the test roots; also recorded: No living roots | 0.7 g/willow cutting | 0 g/willow cutting | without causing damage

— patent publication US20040121912A1, “Method for controlling root growth using paraquat” (priority 2002, published 2004)
